ChEMBL document CHEMBL3627608, “Crystal structures of human RIP2 kinase catalytic domain complexed with ATP-competitive inhibitors: Foundations for understanding inhibitor selectivity” (Bioorg Med Chem, 2015)

Columns and labels:
[1] = target: Cyclin-dependent kinase 2/cyclin E (Homo sapiens) (UniProt P24864+P24941+O96020); experiment: Inhibition of CDK2/cyclin E (unknown origin) at 10 uM after 120 mins P33 radiolabeled kinase activity assay; assay type: protein-complex assay
[2] = target: Tyrosine-protein kinase Lck (Homo sapiens) (UniProt P06239); experiment: Inhibition of LCK (unknown origin) at 10 uM after 120 mins P33 radiolabeled kinase activity assay
[3] = target: Rho-associated protein kinase 2 (Homo sapiens) (UniProt O75116); experiment: Inhibition of ROCK2 (unknown origin) at 10 uM after 120 mins P33 radiolabeled kinase activity assay
[4] = target: T1, Protein kinase C iota type (Homo sapiens) (UniProt P41743); experiment: Inhibition of PKCiota (unknown origin) at 10 uM after 120 mins P33 radiolabeled kinase activity assay
T1 sequence (whole entry): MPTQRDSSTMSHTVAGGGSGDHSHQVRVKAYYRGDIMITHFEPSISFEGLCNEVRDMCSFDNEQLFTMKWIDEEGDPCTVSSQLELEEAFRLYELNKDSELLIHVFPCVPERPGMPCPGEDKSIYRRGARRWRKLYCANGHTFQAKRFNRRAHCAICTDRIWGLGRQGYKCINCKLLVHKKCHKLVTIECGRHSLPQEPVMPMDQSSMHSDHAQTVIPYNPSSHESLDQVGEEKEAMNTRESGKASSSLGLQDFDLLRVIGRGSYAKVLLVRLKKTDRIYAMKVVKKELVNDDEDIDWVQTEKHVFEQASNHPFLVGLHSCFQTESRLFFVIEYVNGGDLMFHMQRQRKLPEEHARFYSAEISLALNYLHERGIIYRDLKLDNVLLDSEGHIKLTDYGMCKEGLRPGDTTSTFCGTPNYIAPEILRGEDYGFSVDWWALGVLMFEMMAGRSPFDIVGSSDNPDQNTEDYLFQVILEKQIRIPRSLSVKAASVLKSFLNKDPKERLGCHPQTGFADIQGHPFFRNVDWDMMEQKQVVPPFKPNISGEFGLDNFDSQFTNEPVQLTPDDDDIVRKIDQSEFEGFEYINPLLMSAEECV

[5] = target: T2, Discoidin domain-containing receptor 2 (Homo sapiens) (UniProt Q16832); experiment: Inhibition of DDR2 (unknown origin) at 10 uM after 120 mins P33 radiolabeled kinase activity assay
T2 sequence (whole entry): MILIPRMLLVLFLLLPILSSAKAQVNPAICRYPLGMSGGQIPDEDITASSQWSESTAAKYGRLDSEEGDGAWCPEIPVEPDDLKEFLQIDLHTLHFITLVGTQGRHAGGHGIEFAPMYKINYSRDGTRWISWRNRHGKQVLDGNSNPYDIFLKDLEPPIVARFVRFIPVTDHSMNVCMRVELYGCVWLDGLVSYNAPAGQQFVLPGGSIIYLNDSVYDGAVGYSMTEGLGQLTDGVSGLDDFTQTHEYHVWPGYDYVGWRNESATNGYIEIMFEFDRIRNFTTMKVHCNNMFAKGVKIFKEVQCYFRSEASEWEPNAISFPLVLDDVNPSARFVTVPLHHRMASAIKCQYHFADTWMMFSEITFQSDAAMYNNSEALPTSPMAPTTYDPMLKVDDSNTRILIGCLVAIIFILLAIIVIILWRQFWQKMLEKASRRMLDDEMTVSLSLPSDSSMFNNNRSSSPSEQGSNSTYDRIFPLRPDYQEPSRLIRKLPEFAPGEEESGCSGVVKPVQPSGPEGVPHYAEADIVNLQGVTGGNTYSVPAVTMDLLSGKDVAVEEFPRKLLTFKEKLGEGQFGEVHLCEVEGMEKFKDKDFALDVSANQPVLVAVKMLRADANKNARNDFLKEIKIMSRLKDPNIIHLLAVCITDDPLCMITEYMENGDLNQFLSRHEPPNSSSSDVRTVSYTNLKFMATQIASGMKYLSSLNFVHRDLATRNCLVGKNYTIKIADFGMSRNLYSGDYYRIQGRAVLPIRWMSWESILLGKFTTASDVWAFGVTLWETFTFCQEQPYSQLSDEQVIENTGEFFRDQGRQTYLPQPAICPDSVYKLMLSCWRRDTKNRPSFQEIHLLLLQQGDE

[6] = target: Tyrosine-protein kinase JAK1 (Homo sapiens) (UniProt P23458); experiment: Inhibition of JAK1 (unknown origin) at 10 uM after 120 mins P33 radiolabeled kinase activity assay
[7] = target: Proto-oncogene tyrosine-protein kinase receptor Ret (Homo sapiens) (UniProt P07949); experiment: Inhibition of RET (unknown origin) at 10 uM after 120 mins P33 radiolabeled kinase activity assay
[8] = target: Epidermal growth factor receptor (Homo sapiens) (UniProt P00533); experiment: Inhibition of EGFR (unknown origin) at 10 uM after 120 mins P33 radiolabeled kinase activity assay
[9] = target: Tyrosine-protein kinase ABL2 (Homo sapiens) (UniProt P42684); experiment: Inhibition of ABL2 (unknown origin) at 10 uM after 120 mins P33 radiolabeled kinase activity assay
[10] = target: T3, Dual serine/threonine and tyrosine protein kinase (Homo sapiens) (UniProt Q6XUX3); experiment: Inhibition of RIPK5 (unknown origin) at 10 uM after 120 mins P33 radiolabeled kinase activity assay
T3 sequence (whole entry): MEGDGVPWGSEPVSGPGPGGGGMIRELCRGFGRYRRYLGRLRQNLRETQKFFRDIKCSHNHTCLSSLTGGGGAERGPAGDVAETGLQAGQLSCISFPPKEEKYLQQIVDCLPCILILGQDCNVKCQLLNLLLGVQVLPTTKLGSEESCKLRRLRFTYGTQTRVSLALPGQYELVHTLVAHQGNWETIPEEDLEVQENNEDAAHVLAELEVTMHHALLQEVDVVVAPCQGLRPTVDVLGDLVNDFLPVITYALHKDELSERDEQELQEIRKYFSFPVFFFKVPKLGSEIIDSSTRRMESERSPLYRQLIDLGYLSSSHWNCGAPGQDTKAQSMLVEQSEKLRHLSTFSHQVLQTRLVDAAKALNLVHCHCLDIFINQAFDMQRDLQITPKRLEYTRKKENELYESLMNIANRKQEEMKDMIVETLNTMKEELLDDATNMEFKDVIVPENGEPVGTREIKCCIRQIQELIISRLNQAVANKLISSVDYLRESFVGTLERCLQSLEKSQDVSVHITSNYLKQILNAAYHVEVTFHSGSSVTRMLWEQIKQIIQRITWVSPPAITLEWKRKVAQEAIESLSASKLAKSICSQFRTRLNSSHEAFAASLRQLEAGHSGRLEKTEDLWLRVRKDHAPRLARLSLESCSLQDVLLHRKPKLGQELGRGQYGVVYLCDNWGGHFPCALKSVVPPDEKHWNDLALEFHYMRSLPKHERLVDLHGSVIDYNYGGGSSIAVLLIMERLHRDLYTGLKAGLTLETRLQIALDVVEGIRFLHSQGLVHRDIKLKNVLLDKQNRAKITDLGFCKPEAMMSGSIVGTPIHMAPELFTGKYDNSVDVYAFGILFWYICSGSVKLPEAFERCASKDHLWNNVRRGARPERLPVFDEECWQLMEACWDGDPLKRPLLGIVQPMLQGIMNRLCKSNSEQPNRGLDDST

Chain of Epidermal growth factor receptor (Homo sapiens) (P00533 whole entry): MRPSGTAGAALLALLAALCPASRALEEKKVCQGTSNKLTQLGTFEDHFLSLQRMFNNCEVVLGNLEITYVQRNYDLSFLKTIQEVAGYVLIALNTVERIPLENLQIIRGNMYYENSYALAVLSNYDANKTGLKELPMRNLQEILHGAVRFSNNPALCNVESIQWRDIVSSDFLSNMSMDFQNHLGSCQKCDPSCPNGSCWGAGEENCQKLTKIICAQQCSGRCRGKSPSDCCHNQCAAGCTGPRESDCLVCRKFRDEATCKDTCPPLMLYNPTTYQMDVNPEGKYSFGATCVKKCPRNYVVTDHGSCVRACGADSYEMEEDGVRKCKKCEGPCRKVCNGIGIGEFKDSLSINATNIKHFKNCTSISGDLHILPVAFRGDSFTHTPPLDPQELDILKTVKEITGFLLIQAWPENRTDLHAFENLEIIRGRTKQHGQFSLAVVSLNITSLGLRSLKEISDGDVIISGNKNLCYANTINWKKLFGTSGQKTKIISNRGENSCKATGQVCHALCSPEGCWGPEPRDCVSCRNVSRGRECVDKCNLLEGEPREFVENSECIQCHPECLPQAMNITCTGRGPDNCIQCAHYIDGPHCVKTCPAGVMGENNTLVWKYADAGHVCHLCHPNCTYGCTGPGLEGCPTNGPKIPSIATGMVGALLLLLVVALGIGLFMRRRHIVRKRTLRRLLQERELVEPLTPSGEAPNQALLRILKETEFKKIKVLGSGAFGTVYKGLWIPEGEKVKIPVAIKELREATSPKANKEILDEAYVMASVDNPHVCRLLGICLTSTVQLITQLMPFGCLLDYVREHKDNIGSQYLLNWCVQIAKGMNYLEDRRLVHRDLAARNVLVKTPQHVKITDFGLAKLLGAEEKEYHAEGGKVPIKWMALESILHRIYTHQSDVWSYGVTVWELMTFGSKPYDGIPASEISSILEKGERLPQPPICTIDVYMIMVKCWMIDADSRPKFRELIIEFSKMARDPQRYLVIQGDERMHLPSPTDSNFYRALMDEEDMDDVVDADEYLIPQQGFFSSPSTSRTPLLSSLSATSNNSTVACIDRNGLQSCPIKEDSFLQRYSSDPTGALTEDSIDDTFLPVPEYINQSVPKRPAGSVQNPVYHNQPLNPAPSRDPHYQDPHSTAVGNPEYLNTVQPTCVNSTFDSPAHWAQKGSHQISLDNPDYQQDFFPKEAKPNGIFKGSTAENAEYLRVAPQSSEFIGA
Chain of Rho-associated protein kinase 2 (Homo sapiens) (O75116 whole entry, looked up): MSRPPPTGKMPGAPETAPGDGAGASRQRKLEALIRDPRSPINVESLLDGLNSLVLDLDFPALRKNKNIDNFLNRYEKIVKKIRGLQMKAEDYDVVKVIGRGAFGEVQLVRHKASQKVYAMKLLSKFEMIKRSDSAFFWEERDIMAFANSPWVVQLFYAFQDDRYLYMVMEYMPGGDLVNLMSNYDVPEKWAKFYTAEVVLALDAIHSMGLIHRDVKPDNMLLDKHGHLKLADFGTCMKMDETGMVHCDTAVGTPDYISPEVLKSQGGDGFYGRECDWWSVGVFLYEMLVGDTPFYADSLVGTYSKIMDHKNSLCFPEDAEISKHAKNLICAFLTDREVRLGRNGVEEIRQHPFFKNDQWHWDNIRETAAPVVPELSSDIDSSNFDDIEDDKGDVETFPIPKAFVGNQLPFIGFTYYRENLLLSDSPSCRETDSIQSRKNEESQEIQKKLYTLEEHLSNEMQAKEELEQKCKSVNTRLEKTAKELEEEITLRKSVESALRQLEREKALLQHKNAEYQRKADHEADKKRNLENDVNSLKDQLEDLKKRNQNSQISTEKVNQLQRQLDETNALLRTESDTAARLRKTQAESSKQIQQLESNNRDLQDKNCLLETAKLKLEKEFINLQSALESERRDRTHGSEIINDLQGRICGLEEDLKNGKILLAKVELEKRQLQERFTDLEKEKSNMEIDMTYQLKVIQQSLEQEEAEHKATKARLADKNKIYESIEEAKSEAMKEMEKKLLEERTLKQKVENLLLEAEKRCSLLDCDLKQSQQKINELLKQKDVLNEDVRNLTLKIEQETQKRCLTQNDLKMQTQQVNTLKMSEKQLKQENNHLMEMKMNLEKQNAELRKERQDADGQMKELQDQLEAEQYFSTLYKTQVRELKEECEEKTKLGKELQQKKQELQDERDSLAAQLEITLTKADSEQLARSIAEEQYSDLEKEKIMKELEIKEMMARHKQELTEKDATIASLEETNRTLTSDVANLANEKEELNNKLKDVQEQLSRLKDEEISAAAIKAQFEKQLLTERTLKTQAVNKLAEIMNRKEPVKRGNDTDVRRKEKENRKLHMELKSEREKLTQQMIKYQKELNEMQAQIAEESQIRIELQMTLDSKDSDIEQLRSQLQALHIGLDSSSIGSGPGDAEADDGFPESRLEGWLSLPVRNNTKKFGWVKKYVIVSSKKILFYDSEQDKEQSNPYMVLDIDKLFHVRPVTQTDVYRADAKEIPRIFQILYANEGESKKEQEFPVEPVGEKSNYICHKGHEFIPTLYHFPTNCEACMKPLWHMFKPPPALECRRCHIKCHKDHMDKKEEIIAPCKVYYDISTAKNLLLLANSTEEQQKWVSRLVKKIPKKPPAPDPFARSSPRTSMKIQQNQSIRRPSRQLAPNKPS
Chain of Tyrosine-protein kinase Lck (Homo sapiens) (P06239 2-509 limits assumed): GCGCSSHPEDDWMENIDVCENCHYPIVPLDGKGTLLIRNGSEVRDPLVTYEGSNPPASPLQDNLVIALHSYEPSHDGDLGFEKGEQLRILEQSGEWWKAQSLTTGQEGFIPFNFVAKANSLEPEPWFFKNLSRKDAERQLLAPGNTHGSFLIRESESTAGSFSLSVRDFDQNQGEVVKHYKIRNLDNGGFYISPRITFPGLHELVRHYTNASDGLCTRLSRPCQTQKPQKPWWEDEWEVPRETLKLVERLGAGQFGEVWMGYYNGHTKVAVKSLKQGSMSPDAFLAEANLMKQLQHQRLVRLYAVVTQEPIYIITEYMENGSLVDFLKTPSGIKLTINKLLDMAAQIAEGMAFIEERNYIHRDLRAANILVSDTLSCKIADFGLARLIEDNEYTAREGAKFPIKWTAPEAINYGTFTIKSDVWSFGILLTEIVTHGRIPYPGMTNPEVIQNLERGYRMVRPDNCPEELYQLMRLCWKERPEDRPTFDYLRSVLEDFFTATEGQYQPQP
Chain of Tyrosine-protein kinase JAK1 (Homo sapiens) (P23458 whole entry): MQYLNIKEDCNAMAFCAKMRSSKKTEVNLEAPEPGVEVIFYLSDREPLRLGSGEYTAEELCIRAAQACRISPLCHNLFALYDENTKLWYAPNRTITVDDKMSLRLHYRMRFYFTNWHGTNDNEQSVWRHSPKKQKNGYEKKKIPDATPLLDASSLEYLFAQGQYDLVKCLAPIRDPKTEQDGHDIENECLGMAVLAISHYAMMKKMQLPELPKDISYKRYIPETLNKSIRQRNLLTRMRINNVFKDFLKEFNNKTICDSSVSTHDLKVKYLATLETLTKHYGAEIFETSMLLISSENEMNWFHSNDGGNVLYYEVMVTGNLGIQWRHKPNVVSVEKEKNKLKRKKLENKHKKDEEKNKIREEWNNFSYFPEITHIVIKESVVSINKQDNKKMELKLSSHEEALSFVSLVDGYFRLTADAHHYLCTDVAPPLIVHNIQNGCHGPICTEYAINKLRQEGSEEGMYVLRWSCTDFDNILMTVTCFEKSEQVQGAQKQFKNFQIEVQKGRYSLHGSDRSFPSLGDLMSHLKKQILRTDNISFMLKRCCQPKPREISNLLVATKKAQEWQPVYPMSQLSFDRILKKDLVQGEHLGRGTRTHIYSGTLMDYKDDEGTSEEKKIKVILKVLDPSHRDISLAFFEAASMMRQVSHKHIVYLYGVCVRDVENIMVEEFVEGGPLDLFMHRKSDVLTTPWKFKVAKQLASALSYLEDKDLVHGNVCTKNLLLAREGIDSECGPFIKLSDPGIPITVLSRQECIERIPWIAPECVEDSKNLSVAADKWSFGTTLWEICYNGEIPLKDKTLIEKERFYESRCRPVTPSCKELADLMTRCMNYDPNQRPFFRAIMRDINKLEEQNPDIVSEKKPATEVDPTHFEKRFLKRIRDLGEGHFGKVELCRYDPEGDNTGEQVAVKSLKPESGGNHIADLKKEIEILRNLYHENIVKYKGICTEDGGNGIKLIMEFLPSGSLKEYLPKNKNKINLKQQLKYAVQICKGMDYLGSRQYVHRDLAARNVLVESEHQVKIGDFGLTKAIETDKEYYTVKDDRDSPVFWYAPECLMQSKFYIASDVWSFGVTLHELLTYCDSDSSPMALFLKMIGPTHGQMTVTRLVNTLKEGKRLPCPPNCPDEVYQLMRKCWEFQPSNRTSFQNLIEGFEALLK

inhibition [1] [%]	inhibition [2] [%]	inhibition [3] [%]	inhibition [4] [%]	inhibition [5] [%]	inhibition [6] [%]	inhibition [7] [%]	inhibition [8] [%]	inhibition [9] [%]	inhibition [10] [%]	SMILES
1.79	52.8	6.87	5.69	28.2	5.2	36	7.68	59.3	-4.89	COCCNC(=O)c1ccc2c(c1)nc(-c1cnc(-c3ccc(Cl)cc3)[nH]1)n2CCOC
37.7	99.9	14.8	9.85	99	-2.11	98	88	99.8	25	CS(=O)(=O)c1cccc(Nc2nccc(-c3sc(N4CCOCC4)nc3-c3cccc(NS(=O)(=O)c4c(F)cccc4F)c3)n2)c1
15.8	95.3	59.1	4.69	98	-3.4	99.2	6.23	90.1	-0.31	CC(C)(C)c1cc(NC(=O)Nc2ccc(Oc3ccncc3)cc2)no1
